Experimental data as given in patent US8952024B2, “Herbicidal pyrimidone derivatives” (E I du Pont de Nemours and Company, priority 2009, dated 2015).

How the values were obtained:
Type in all cases: in vivo
[1] = test system: cocklebur (Xanthium strumarium); test: Test B pre-/postemergence plant response; conditions: for Cocklebur plant response rating (0 to 100 scale): 0 is no effect, 13 to 15 days
Summary of the method: (§1)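 Steps: sow seed in loam–sand soil and spray preemergence, or grow plants in peat-based medium to 1–4 leaves (2–18 cm) and spray postemergence; formulation is non-phytotoxic solvent plus surfactant; hold in greenhouse 13–15 days; score visually vs controls, 0 = no effect, 100 = complete control.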

[2] = test system: goosegrass (Eleusine indica); test: Test B pre-/postemergence plant response; conditions: for Goosegrass plant response rating (0 to 100 scale): 0 is no effect, 13 to 15 days
Summary of the method: as §1

[3] = test system: johnsongrass (Sorghum halepense); test: Test B pre-/postemergence plant response; conditions: for Johnsongrass plant response rating (0 to 100 scale): 0 is no effect, 13 to 15 days
Summary of the method: as §1

kochia (Kochia scoparia) = test: Test B pre-/postemergence plant response; conditions: for Kochia plant response rating (0 to 100 scale): 0 is no effect, 13 to 15 days
Summary of the method: as §1

[4] = test system: pigweed (Amaranthus retroflexus); test: Test B pre-/postemergence plant response; conditions: for Pigweed plant response rating (0 to 100 scale): 0 is no effect, 13 to 15 days
Summary of the method: as §1

[5] = test system: ragweed (common ragweed, Ambrosia elatior); test: Test B pre-/postemergence plant response; conditions: for Ragweed plant response rating (0 to 100 scale): 0 is no effect, 13 to 15 days
Summary of the method: as §1

soybean (Glycine max) = test: Test B pre-/postemergence plant response; conditions: for Soybean plant response rating (0 to 100 scale): 62 g ai/ha, 0 is no effect, 13 to 15 days
Summary of the method: as §1

[6] = test system: velvetleaf (Abutilon theophrasti); test: Test B pre-/postemergence plant response; conditions: for Velvetleaf plant response rating (0 to 100 scale): 0 is no effect, 13 to 15 days
Summary of the method: as §1

[7] = test system: wheat (Triticum aestivum); test: Test B pre-/postemergence plant response; conditions: for Wheat plant response rating (0 to 100 scale): 0 is no effect, 13 to 15 days
Summary of the method: as §1

wild oat (Avena fatua) = test: Test B pre-/postemergence plant response; conditions: for Oat, Wild plant response rating (0 to 100 scale): 0 is no effect, 13 to 15 days
Summary of the method: as §1

[8] = test system: canarygrass (Phalaris minor); test: Test B postemergence plant response; conditions: for Canarygrass plant response rating (0 to 100 scale): 62 g ai/ha, 0 is no effect, 13 to 15 days
Summary of the method: (§2)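 Plants at the 1- to 4-leaf stage (2 to 18 cm tall), grown in pots of peat moss/vermiculite medium with wetting agent and starter nutrients, received postemergence applications of test chemicals. After 13 to 15 days in a greenhouse, injury was rated visually against untreated controls on a 0 (no effect) to 100 (complete control) scale.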

[9] = test system: chickweed (Stellaria media); test: Test B postemergence plant response; conditions: for Chickweed plant response rating (0 to 100 scale): 62 g ai/ha, 0 is no effect, 13 to 15 days
Summary of the method: as §2

[10] = test system: windgrass (Apera spica-venti); test: Test B postemergence plant response; conditions: for Windgrass plant response rating (0 to 100 scale): 62 g ai/ha, 0 is no effect, 13 to 15 days
Summary of the method: as §2

[11] = 31 g ai/ha, postemergence, scale 0 to 100, 0 is no effect, 100 is complete control
[12] = 62 g ai/ha, postemergence, 100 is complete control
[13] = 250 g ai/ha, Preemergence, 0 to 100 scale
[14] = Postemergence, 125 g ai/ha, visual rating after 13 to 15 days, scale 0 (no effect) to 100 (complete control)
[15] = Postemergence, 250 g ai/ha, scale 0 to 100 (0 no effect, 100 complete control)
[16] = Preemergence, 31 g ai/ha, scale 0 to 100 (0 no effect, 100 complete control)
[17] = Preemergence, 62 g ai/ha, scale 0 to 100 (0 no effect, 100 complete control)
[18] = Preemergence, 125 g ai/ha, scale 0 to 100, 0 no effect, 100 complete control
[19] = postemergence, 100 is complete control

SMILES: CCCCc1ncc(C(=O)C2=C(O)CCCC2=O)c(=O)n1-c1ccc(C)cc1 [Compound 67]
- Plant response rating, Cocklebur [1, 11]: 75
- Cocklebur plant response rating (0 to 100 scale) [1, 12]: 75
- Plant response rating, Cocklebur [1, 13]: 20
- Plant response rating, Cocklebur [1, 14]: 90
- Plant response rating, Cocklebur [1, 15]: 90
- Plant response rating, Cocklebur [1, 16]: 0
- Plant response rating, Cocklebur [1, 17]: 0
- Plant response rating, Cocklebur [1, 18]: 15
- Plant response rating, Goosegrass [2, 11]: 55
- Goosegrass plant response rating (0 to 100 scale) [2, 12]: 55
- Plant response rating, Goosegrass [2, 13]: 98
- Plant response rating, Goosegrass [2, 14]: 65
- Plant response rating, Goosegrass [2, 15]: 80
- Plant response rating, Goosegrass [2, 16]: 85
- Plant response rating, Goosegrass [2, 17]: 85
- Plant response rating, Goosegrass [2, 18]: 90
- Plant response rating, Johnsongrass [3, 11]: 0
- Johnsongrass plant response rating (0 to 100 scale) [3, 12]: 0
- Plant response rating, Johnsongrass [3, 13]: 0
- Plant response rating, Johnsongrass [3, 14]: 5
- Plant response rating, Johnsongrass [3, 15]: 10
- Plant response rating, Johnsongrass [3, 16]: 0
- Plant response rating, Johnsongrass [3, 17]: 0
- Plant response rating, Johnsongrass [3, 18]: 0
- Plant response rating, Kochia (kochia (Kochia scoparia); [11]): 75
- Kochia plant response rating (0 to 100 scale) (kochia (Kochia scoparia); [12]): 80
- Plant response rating, Kochia (kochia (Kochia scoparia); [13]): 85
- Plant response rating, Kochia (kochia (Kochia scoparia); [14]): 85
- Plant response rating, Kochia (kochia (Kochia scoparia); [15]): 85
- Plant response rating, Kochia (kochia (Kochia scoparia); [16]): 70
- Plant response rating, Kochia (kochia (Kochia scoparia); [17]): 70
- Plant response rating, Kochia (kochia (Kochia scoparia); [18]): 80
- Plant response rating, Pigweed [4, 11]: 98
- Pigweed plant response rating (0 to 100 scale) [4, 12]: 98
- Plant response rating, Pigweed [4, 14]: 98
- Plant response rating, Pigweed [4, 15]: 100
- Plant response rating, Pigweed [4, 16]: 98
- Plant response rating, Pigweed [4, 17]: 98
- Plant response rating, Pigweed [4, 18]: 98
- Plant response rating, Ragweed [5, 11]: 75
- Ragweed plant response rating (0 to 100 scale) [5, 12]: 80
- Plant response rating, Ragweed [5, 14]: 85
- Plant response rating, Ragweed [5, 15]: 90
- Plant response rating, Ragweed [5, 16]: 25
- Plant response rating, Ragweed [5, 17]: 25
- Plant response rating, Ragweed [5, 18]: 35
- Plant response rating, Soybean (soybean (Glycine max); [11]): 80
- Soybean plant response rating (0 to 100 scale) (soybean (Glycine max); [19]): 90
- Plant response rating, Soybean (soybean (Glycine max); [14]): 98
- Plant response rating, Soybean (soybean (Glycine max); [15]): 98
- Plant response rating, Velvetleaf [6, 11]: 90
- Velvetleaf plant response rating (0 to 100 scale) [6, 12]: 95
- Plant response rating, Velvetleaf [6, 14]: 98
- Plant response rating, Velvetleaf [6, 15]: 100
- Plant response rating, Velvetleaf [6, 16]: 75
- Plant response rating, Velvetleaf [6, 17]: 85
- Plant response rating, Velvetleaf [6, 18]: 90
- Plant response rating, Wheat [7, 11]: 5
- Wheat plant response rating (0 to 100 scale) [7, 12]: 5
- Plant response rating, Wheat [7, 14]: 25
- Plant response rating, Wheat [7, 15]: 25
- Plant response rating, Wheat [7, 16]: 0
- Plant response rating, Wheat [7, 17]: 0
- Plant response rating, Wheat [7, 18]: 0
- Plant response rating, Oat, Wild (wild oat (Avena fatua); [11]): 0
- Oat, Wild plant response rating (0 to 100 scale) (wild oat (Avena fatua); [12]): 5
- Plant response rating, Oat, Wild (wild oat (Avena fatua); [14]): 10
- Plant response rating, Oat, Wild (wild oat (Avena fatua); [15]): 10
- Plant response rating, Oat, Wild (wild oat (Avena fatua); [16]): 0
- Plant response rating, Oat, Wild (wild oat (Avena fatua); [17]): 0
- Plant response rating, Oat, Wild (wild oat (Avena fatua); [18]): 0
- Plant response rating, Canarygrass [8, 11]: 0
- Canarygrass plant response rating (0 to 100 scale) [8, 19]: 0
- Plant response rating, Canarygrass [8, 14]: 0
- Plant response rating, Canarygrass [8, 15]: 5
- Plant response rating, Chickweed [9, 11]: 90
- Chickweed plant response rating (0 to 100 scale) [9, 19]: 95
- Plant response rating, Chickweed [9, 14]: 95
- Plant response rating, Chickweed [9, 15]: 100
- Plant response rating, Windgrass [10, 11]: 0
- Windgrass plant response rating (0 to 100 scale) [10, 19]: 0
- Plant response rating, Windgrass [10, 14]: 5
- Plant response rating, Windgrass [10, 15]: 5

SMILES: O=C1CCCC(O)=C1C(=O)c1cnc(-c2ccccc2Br)n(-c2ccccc2)c1=O [Compound 71]
- Plant response rating, Cocklebur [1, 11]: 65
- Cocklebur plant response rating (0 to 100 scale) [1, 12]: 65
- Plant response rating, Cocklebur [1, 14]: 95
- Plant response rating, Cocklebur [1, 15]: 95
- Plant response rating, Goosegrass [2, 11]: 75
- Goosegrass plant response rating (0 to 100 scale) [2, 12]: 75
- Plant response rating, Goosegrass [2, 14]: 90
- Plant response rating, Goosegrass [2, 15]: 90
- Plant response rating, Johnsongrass [3, 11]: 65
- Johnsongrass plant response rating (0 to 100 scale) [3, 12]: 75
- Plant response rating, Johnsongrass [3, 14]: 98
- Plant response rating, Johnsongrass [3, 15]: 100
- Plant response rating, Kochia (kochia (Kochia scoparia); [11]): 0
- Kochia plant response rating (0 to 100 scale) (kochia (Kochia scoparia); [12]): 0
- Plant response rating, Kochia (kochia (Kochia scoparia); [14]): 25
- Plant response rating, Kochia (kochia (Kochia scoparia); [15]): 65
- Plant response rating, Pigweed [4, 11]: 85
- Pigweed plant response rating (0 to 100 scale) [4, 12]: 85
- Plant response rating, Pigweed [4, 14]: 98
- Plant response rating, Pigweed [4, 15]: 100
- Plant response rating, Ragweed [5, 11]: 75
- Ragweed plant response rating (0 to 100 scale) [5, 12]: 80
- Plant response rating, Ragweed [5, 14]: 80
- Plant response rating, Ragweed [5, 15]: 95
- Plant response rating, Soybean (soybean (Glycine max); [11]): 65
- Soybean plant response rating (0 to 100 scale) (soybean (Glycine max); [19]): 70
- Plant response rating, Soybean (soybean (Glycine max); [14]): 95
- Plant response rating, Soybean (soybean (Glycine max); [15]): 98
- Plant response rating, Velvetleaf [6, 11]: 75
- Velvetleaf plant response rating (0 to 100 scale) [6, 12]: 85
- Plant response rating, Velvetleaf [6, 14]: 90
- Plant response rating, Velvetleaf [6, 15]: 95
- Plant response rating, Wheat [7, 11]: 0
- Wheat plant response rating (0 to 100 scale) [7, 12]: 0
- Plant response rating, Wheat [7, 14]: 0
- Plant response rating, Wheat [7, 15]: 5
- Plant response rating, Oat, Wild (wild oat (Avena fatua); [11]): 0
- Oat, Wild plant response rating (0 to 100 scale) (wild oat (Avena fatua); [12]): 0
- Plant response rating, Oat, Wild (wild oat (Avena fatua); [14]): 0
- Plant response rating, Oat, Wild (wild oat (Avena fatua); [15]): 5
- Plant response rating, Canarygrass [8, 11]: 0
- Canarygrass plant response rating (0 to 100 scale) [8, 19]: 5
- Plant response rating, Canarygrass [8, 14]: 5
- Plant response rating, Canarygrass [8, 15]: 20
- Plant response rating, Chickweed [9, 11]: 75
- Chickweed plant response rating (0 to 100 scale) [9, 19]: 90
- Plant response rating, Chickweed [9, 14]: 95
- Plant response rating, Chickweed [9, 15]: 98
- Plant response rating, Windgrass [10, 11]: 5
- Windgrass plant response rating (0 to 100 scale) [10, 19]: 10
- Plant response rating, Windgrass [10, 14]: 45
- Plant response rating, Windgrass [10, 15]: 60
